Reference: patent publication US20220281848A1, “PYRAZOLE-SUBSTITUTED PYRROLIDINONES AS HERBICIDES” (FMC Corporation, priority 2019, published 2022)

Experiments:
Assay type in all cases: in vivo
Details in all cases: after 13 d
[1] = test system: barnyardgrass (Echinochloa crus-galli, ECHCG); experiment: Test A post-emergence, barnyardgrass
Method in brief: (§1)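 Plants were grown 8 d in a glasshouse (24/16° C day/night, 14 h light, 65% humidity), then sprayed post-emergence at 15.625, 62.5 or 250 g/ha in acetone/water (50:50) with 0.5% Tween 20. Damage was scored visually after 13 d (0 = none, 100 = total).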

[2] = test system: velvetleaf (Abutilon theophrasti, ABUTH); experiment: Test A post-emergence, velvetleaf
Method in brief: as §1

[3] = test system: redroot pigweed (Amaranthus retroflexus, AMARE); experiment: Test A pre-emergence, redroot pigweed
Method in brief: (§2)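 Seeds were sown in standard soil in pots, kept one day in a glasshouse (24/16° C. day/night, 14 h light, 65% humidity), then sprayed with compound in acetone/water (50:50) containing 0.5% Tween 20 at 15.625, 62.5 or 250 g/ha. Plants grew on under the same conditions, watered twice daily, and damage was scored after 13 d (0 = none, 100 = total).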

[4] = test system: giant foxtail (Setaria faberi, SETFA); experiment: Test A pre-emergence, giant foxtail
Method in brief: as §2

[5] = test system: corn (Zea mays, ZEAMX); experiment: Test A post-emergence, corn
Method in brief: as §1

[6] = test system: ivy-leaved morning glory (Ipomoea hederacea, IPOHE); experiment: Test A post-emergence, ivy-leaved morning glory
Method in brief: as §1

[7] = test system: corn (Zea mays, ZEAMX); experiment: Test A pre-emergence, corn
Method in brief: as §2

[8] = test system: ivy-leaved morning glory (Ipomoea hederacea, IPOHE); experiment: Test A pre-emergence, ivy-leaved morning glory
Method in brief: as §2

[9] = test system: giant foxtail (Setaria faberi, SETFA); experiment: Test A post-emergence, giant foxtail
Method in brief: as §1

[10] = test system: redroot pigweed (Amaranthus retroflexus, AMARE); experiment: Test A post-emergence, redroot pigweed
Method in brief: as §1

[11] = test system: velvetleaf (Abutilon theophrasti, ABUTH); experiment: Test A pre-emergence, velvetleaf
Method in brief: as §2

[12] = test system: barnyardgrass (Echinochloa crus-galli, ECHCG); experiment: Test A pre-emergence, barnyardgrass
Method in brief: as §2

Row | SMILES | damage to plant (100=total damage; 0=no damage) ECHCG ([1]; Post-Emergence at 15.625 g/ha) | damage to plant (100=total damage; 0=no damage) ECHCG ([1]; Post-Emergence at 62.5 g/ha) | damage to plant (100=total damage; 0=no damage) ECHCG ([1]; Post-Emergence at 250 g/ha) | damage to plant (100=total damage; 0=no damage) ABUTH ([2]; Post-Emergence at 15.625 g/ha) | damage to plant (100=total damage; 0=no damage) ABUTH ([2]; Post-Emergence at 62.5 g/ha) | damage to plant (100=total damage; 0=no damage) ABUTH ([2]; Post-Emergence at 250 g/ha) | damage to plant (100=total damage; 0=no damage) AMARE ([3]; Pre-Emergence at 62.5 g/ha) | damage to plant (100=total damage; 0=no damage) AMARE ([3]; Pre-Emergence at 250 g/ha) | damage to plant (100=total damage; 0=no damage) SETFA ([4]; Pre-Emergence at 62.5 g/ha) | damage to plant (100=total damage; 0=no damage) SETFA ([4]; Pre-Emergence at 250 g/ha) | damage to plant (100=total damage; 0=no damage) ZEAMX ([5]; Post-Emergence at 15.625 g/ha) | damage to plant (100=total damage; 0=no damage) ZEAMX ([5]; Post-Emergence at 62.5 g/ha) | damage to plant (100=total damage; 0=no damage) ZEAMX ([5]; Post-Emergence at 250 g/ha) | damage to plant (100=total damage; 0=no damage) IPOHE ([6]; Post-Emergence at 15.625 g/ha) | damage to plant (100=total damage; 0=no damage) IPOHE ([6]; Post-Emergence at 62.5 g/ha) | damage to plant (100=total damage; 0=no damage) IPOHE ([6]; Post-Emergence at 250 g/ha) | damage to plant (100=total damage; 0=no damage) ZEAMX ([7]; Pre-Emergence at 62.5 g/ha) | damage to plant (100=total damage; 0=no damage) ZEAMX ([7]; Pre-Emergence at 250 g/ha) | damage to plant (100=total damage; 0=no damage) IPOHE ([8]; Pre-Emergence at 62.5 g/ha) | damage to plant (100=total damage; 0=no damage) IPOHE ([8]; Pre-Emergence at 250 g/ha) | also measured
1 | CN1C[C@H](c2nn(C)c3c(Cl)cccc23)[C@@H](C(=O)Nc2cccc(F)c2F)C1=O [Compound 5] | 0 | 60 | 80 | 0 | 0 | 0 | 0 | 30 | 30 | 80 | 0 | 0 | 0 | 0 | 0 | 0 | 0 | 0 | 0 | 0 | damage to plant (100=total damage; 0=no damage) AMARE ([3]; Pre-Emergence at 15.625 g/ha): 0; damage to plant (100=total damage; 0=no damage) SETFA ([4]; Pre-Emergence at 15.625 g/ha): 0; damage to plant (100=total damage; 0=no damage) ZEAMX ([7]; Pre-Emergence at 15.625 g/ha): 0; damage to plant (100=total damage; 0=no damage) IPOHE ([8]; Pre-Emergence at 15.625 g/ha): 0; damage to plant (100=total damage; 0=no damage) SETFA ([9]; Post-Emergence at 15.625 g/ha): 10; damage to plant (100=total damage; 0=no damage) SETFA ([9]; Post-Emergence at 62.5 g/ha): 50; damage to plant (100=total damage; 0=no damage) SETFA ([9]; Post-Emergence at 250 g/ha): 80; damage to plant (100=total damage; 0=no damage) AMARE ([10]; Post-Emergence at 15.625 g/ha): 0; damage to plant (100=total damage; 0=no damage) AMARE ([10]; Post-Emergence at 62.5 g/ha): 0; damage to plant (100=total damage; 0=no damage) AMARE ([10]; Post-Emergence at 250 g/ha): 0; damage to plant (100=total damage; 0=no damage) ABUTH ([11]; Pre-Emergence at 15.625 g/ha): 0; damage to plant (100=total damage; 0=no damage) ABUTH ([11]; Pre-Emergence at 62.5 g/ha): 0; damage to plant (100=total damage; 0=no damage) ABUTH ([11]; Pre-Emergence at 250 g/ha): 10; damage to plant (100=total damage; 0=no damage) ECHCG ([12]; Pre-Emergence at 15.625 g/ha): 0; damage to plant (100=total damage; 0=no damage) ECHCG ([12]; Pre-Emergence at 62.5 g/ha): 20; damage to plant (100=total damage; 0=no damage) ECHCG ([12]; Pre-Emergence at 250 g/ha): 80
2 | CCn1nc([C@H]2CN(C)C(=O)[C@@H]2C(=O)Nc2ccc(F)nc2F)c2cccc(F)c21 [Compound 11] | 50 | 90 | 90 | 0 | 0 | 0 | 0 | 0 | 90 | 90 | 10 | 10 | 40 | 0 | 0 | 0 | 0 | 20 | 0 | 10 | damage to plant (100=total damage; 0=no damage) AMARE ([3]; Pre-Emergence at 15.625 g/ha): 0; damage to plant (100=total damage; 0=no damage) SETFA ([4]; Pre-Emergence at 15.625 g/ha): 80; damage to plant (100=total damage; 0=no damage) ZEAMX ([7]; Pre-Emergence at 15.625 g/ha): 0; damage to plant (100=total damage; 0=no damage) IPOHE ([8]; Pre-Emergence at 15.625 g/ha): 0; damage to plant (100=total damage; 0=no damage) SETFA ([9]; Post-Emergence at 15.625 g/ha): 60; damage to plant (100=total damage; 0=no damage) SETFA ([9]; Post-Emergence at 62.5 g/ha): 80; damage to plant (100=total damage; 0=no damage) SETFA ([9]; Post-Emergence at 250 g/ha): 80; damage to plant (100=total damage; 0=no damage) AMARE ([10]; Post-Emergence at 15.625 g/ha): 0; damage to plant (100=total damage; 0=no damage) AMARE ([10]; Post-Emergence at 62.5 g/ha): 0; damage to plant (100=total damage; 0=no damage) AMARE ([10]; Post-Emergence at 250 g/ha): 0; damage to plant (100=total damage; 0=no damage) ABUTH ([11]; Pre-Emergence at 15.625 g/ha): 0; damage to plant (100=total damage; 0=no damage) ABUTH ([11]; Pre-Emergence at 62.5 g/ha): 0; damage to plant (100=total damage; 0=no damage) ABUTH ([11]; Pre-Emergence at 250 g/ha): 0; damage to plant (100=total damage; 0=no damage) ECHCG ([12]; Pre-Emergence at 15.625 g/ha): 20; damage to plant (100=total damage; 0=no damage) ECHCG ([12]; Pre-Emergence at 62.5 g/ha): 90; damage to plant (100=total damage; 0=no damage) ECHCG ([12]; Pre-Emergence at 250 g/ha): 90
3 | CN1CC(c2cc(C(F)(F)F)n(C)n2)C(C(=O)Nc2cccc(F)c2F)C1=O (stereo not drawn) [Compound 12] | 0 | 0 | 0 | 0 | 0 | 0 | 0 | 10 | 0 | 0 | 0 | 0 | 0 | 0 | 0 | 0 | 0 | 20 | 0 | 20 | damage to plant (100=total damage; 0=no damage) AMARE ([3]; Pre-Emergence at 15.625 g/ha): 0; damage to plant (100=total damage; 0=no damage) SETFA ([4]; Pre-Emergence at 15.625 g/ha): 0; damage to plant (100=total damage; 0=no damage) ZEAMX ([7]; Pre-Emergence at 15.625 g/ha): 0; damage to plant (100=total damage; 0=no damage) IPOHE ([8]; Pre-Emergence at 15.625 g/ha): 0; damage to plant (100=total damage; 0=no damage) SETFA ([9]; Post-Emergence at 15.625 g/ha): 0; damage to plant (100=total damage; 0=no damage) SETFA ([9]; Post-Emergence at 62.5 g/ha): 0; damage to plant (100=total damage; 0=no damage) SETFA ([9]; Post-Emergence at 250 g/ha): 0; damage to plant (100=total damage; 0=no damage) AMARE ([10]; Post-Emergence at 15.625 g/ha): 0; damage to plant (100=total damage; 0=no damage) AMARE ([10]; Post-Emergence at 62.5 g/ha): 0; damage to plant (100=total damage; 0=no damage) AMARE ([10]; Post-Emergence at 250 g/ha): 0; damage to plant (100=total damage; 0=no damage) ABUTH ([11]; Pre-Emergence at 15.625 g/ha): 0; damage to plant (100=total damage; 0=no damage) ABUTH ([11]; Pre-Emergence at 62.5 g/ha): 0; damage to plant (100=total damage; 0=no damage) ABUTH ([11]; Pre-Emergence at 250 g/ha): 0; damage to plant (100=total damage; 0=no damage) ECHCG ([12]; Pre-Emergence at 15.625 g/ha): 0; damage to plant (100=total damage; 0=no damage) ECHCG ([12]; Pre-Emergence at 62.5 g/ha): 0; damage to plant (100=total damage; 0=no damage) ECHCG ([12]; Pre-Emergence at 250 g/ha): 10
4 | CCn1nc(C2CN(C)C(=O)C2C(=O)Nc2cccc(F)c2F)c2cccc(F)c21 (stereo not drawn) [Compound 15] | 0 | 0 | 0 | 0 | 0 | 0 | 0 | 0 | 0 | 0 | 0 | 0 | 0 | 0 | 0 | 0 | 0 | 0 | 0 | 0 | damage to plant (100=total damage; 0=no damage) SETFA ([9]; Post-Emergence at 15.625 g/ha): 0; damage to plant (100=total damage; 0=no damage) SETFA ([9]; Post-Emergence at 62.5 g/ha): 0; damage to plant (100=total damage; 0=no damage) SETFA ([9]; Post-Emergence at 250 g/ha): 0; damage to plant (100=total damage; 0=no damage) AMARE ([10]; Post-Emergence at 15.625 g/ha): 0; damage to plant (100=total damage; 0=no damage) AMARE ([10]; Post-Emergence at 62.5 g/ha): 0; damage to plant (100=total damage; 0=no damage) AMARE ([10]; Post-Emergence at 250 g/ha): 0; damage to plant (100=total damage; 0=no damage) ABUTH ([11]; Pre-Emergence at 62.5 g/ha): 0; damage to plant (100=total damage; 0=no damage) ABUTH ([11]; Pre-Emergence at 250 g/ha): 0; damage to plant (100=total damage; 0=no damage) ECHCG ([12]; Pre-Emergence at 62.5 g/ha): 0; damage to plant (100=total damage; 0=no damage) ECHCG ([12]; Pre-Emergence at 250 g/ha): 0
